The target in this assay is T1, ABL1 G250E (Homo sapiens, UniProt P00519, G250E).
T1 construct: purchased Thermo Fisher Scientific (Life Technologies) SelectScreen
In words: SelectScreen Z'LYTE. Format: biochemical. In short, it runs like this:
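Percent values come from Thermo SelectScreen profiling of NU5455, combining activity and binding assays. CSF1R was run in Z'LYTE format at Km app ATP, and CAMK1 in Adapta format with ATP listed at 10.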

What is called inhibition is the relative decrease from the control value, in per cent. In the case of `CN(C(=O)CN1CCOCC1)c1ccc2sc3c(-c4cccc5c(=O)cc(N6CC7CCC(C6)O7)oc45)cccc3c2c1` [NU5455], the inhibition at 1 µM is -8.5%.
